Molecules are shown by their SMILES.

35 compounds from patent publication US8614327B2 (Vertex Pharmaceuticals Incorporated, priority 2004, dated 2013) can be followed below.

The test has as its target T1, ΔF508-CFTR (Homo sapiens, UniProt P13569, DEL508-508).
T1 construct: expressed in transfected cells
Kind of test: Membrane potential optical (FRET/VIPR) assay, identification of potentiator compounds. Particulars: Table 3, assay not given; for % Activity: relative efficacy. Type of test: cell-based. The method, boiled down: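 NIH3T3 mouse fibroblasts stably expressing ΔF508-CFTR, temperature-corrected 24 h at 27° C., read on VIPR by FRET between CC2-DMPE and DiSBAC2(3). Potentiators identified in a double-addition format, first adding chloride-free (gluconate) medium with or without compound.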

T1 sequence (P13569 with tags, fused parts or gaps DEL508-508): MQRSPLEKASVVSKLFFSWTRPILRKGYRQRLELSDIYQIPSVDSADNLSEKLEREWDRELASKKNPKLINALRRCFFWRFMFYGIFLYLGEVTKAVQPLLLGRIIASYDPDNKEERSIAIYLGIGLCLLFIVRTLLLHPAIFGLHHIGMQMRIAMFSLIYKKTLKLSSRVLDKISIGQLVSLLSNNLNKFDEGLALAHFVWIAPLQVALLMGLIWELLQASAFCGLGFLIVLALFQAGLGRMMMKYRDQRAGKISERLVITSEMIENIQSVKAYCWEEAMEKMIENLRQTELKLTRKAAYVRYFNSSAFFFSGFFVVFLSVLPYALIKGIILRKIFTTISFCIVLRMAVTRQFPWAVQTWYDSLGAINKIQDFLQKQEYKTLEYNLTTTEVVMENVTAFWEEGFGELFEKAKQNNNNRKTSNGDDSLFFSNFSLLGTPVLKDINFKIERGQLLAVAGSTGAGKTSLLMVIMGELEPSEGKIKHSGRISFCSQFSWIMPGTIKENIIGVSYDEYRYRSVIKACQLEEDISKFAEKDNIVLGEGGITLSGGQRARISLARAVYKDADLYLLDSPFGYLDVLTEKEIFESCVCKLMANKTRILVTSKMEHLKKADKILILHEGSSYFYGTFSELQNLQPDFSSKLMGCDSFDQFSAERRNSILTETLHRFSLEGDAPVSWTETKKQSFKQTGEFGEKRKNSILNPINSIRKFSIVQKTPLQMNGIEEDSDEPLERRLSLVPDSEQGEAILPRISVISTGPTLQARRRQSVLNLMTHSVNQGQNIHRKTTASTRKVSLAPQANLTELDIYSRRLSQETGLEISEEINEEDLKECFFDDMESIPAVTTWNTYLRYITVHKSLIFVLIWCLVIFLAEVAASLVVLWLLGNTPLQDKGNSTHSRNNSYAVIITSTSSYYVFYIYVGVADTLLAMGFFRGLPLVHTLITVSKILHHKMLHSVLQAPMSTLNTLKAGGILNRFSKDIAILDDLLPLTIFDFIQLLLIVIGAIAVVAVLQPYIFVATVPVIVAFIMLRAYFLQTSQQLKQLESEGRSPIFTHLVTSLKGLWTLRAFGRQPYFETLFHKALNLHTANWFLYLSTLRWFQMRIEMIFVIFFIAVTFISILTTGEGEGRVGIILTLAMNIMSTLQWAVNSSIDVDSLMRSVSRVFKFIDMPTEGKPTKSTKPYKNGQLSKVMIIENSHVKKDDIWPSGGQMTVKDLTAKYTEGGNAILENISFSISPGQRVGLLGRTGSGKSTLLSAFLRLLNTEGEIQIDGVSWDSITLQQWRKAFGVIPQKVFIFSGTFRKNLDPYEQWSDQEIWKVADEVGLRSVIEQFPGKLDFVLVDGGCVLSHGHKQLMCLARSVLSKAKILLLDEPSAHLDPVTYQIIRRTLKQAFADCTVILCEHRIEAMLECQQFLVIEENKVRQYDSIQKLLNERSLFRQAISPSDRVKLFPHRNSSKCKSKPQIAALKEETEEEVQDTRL

As for `COc1cccc(-c2ccccc2NC(=O)c2c[nH]c3ccccc3c2=O)c1F` [Compound 363, N-[2-(2-fluoro-3-methoxy-phenyl)phenyl]-4-oxo-1H-quinoline-3-carboxamide], the EC50 was below 10 µM and the “% Activity” value was “+++ (>100%)”. Taken in the same sequence, the figures for `Cc1ccc2cccc(NC(=O)c3c[nH]c4ccccc4c3=O)c2n1` [Compound 364, N-(2-methyl-8-quinolyl)-4-oxo-1H-quinoline-3-carboxamide] were below 10 µM and “++ (between 25% to 100%)”. For `CC(=O)c1ccccc1NC(=O)c1c[nH]c2ccccc2c1=O` [Compound 365, N-(2-acetylphenyl)-4-oxo-1H-quinoline-3-carboxamide], in that order: 10 to 25 µM and “++ (between 25% to 100%)”. Taken in the same sequence, the figures for `O=C(Nc1ccccc1-c1ccc(C(F)(F)F)cc1)c1c[nH]c2ccccc2c1=O` [Compound 366, 4-oxo-N-[2-[4-(trifluoromethyl)phenyl]phenyl]-1H-quinoline-3-carboxamide] were below 10 µM and “++ (between 25% to 100%)”.

`O=C(Nc1ccccc1-c1cc(Cl)cc(Cl)c1)c1c[nH]c2ccccc2c1=O` [Compound 367, N-[2-(3,5-dichlorophenyl)phenyl]-4-oxo-1H-quinoline-3-carboxamide]: the EC50 is below 10 µM and the “% Activity” value is on record as “++ (between 25% to 100%)”. For `CCCOc1ccc(NC(=O)c2c[nH]c3ccccc3c2=O)cc1N` [Compound 368, N-(3-amino-4-propoxy-phenyl)-4-oxo-1H-quinoline-3-carboxamide], in that order: below 10 µM and “++ (between 25% to 100%)”. For the compound `N#Cc1cc(Cl)cc(Cl)c1NC(=O)c1c[nH]c2ccccc2c1=O` [Compound 369, N-(2,4-dichloro-6-cyano-phenyl)-4-oxo-1H-quinoline-3-carboxamide], the concentration giving a half-maximal response (EC50) is 10 to 25 µM and the “% Activity” value is reported as “+ (<25%)”. On to `O=C(Nc1cccc(Cl)c1)c1c[nH]c2ccccc2c1=O` [Compound 370, N-(3-chlorophenyl)-4-oxo-1H-quinoline-3-carboxamide], for which the concentration giving a half-maximal response (EC50) is below 10 µM and the “% Activity” value is given as “++ (between 25% to 100%)”. Taken in the same sequence, the figures for `O=C(Nc1ccccc1SC(F)(F)F)c1c[nH]c2ccccc2c1=O` [Compound 371, 4-oxo-N-[2-(trifluoromethylsulfanyl)phenyl]-1H-quinoline-3-carboxamide] were below 10 µM and “++ (between 25% to 100%)”. Taken in the same sequence, the figures for `CC1CCN(c2ccccc2NC(=O)c2c[nH]c3ccccc3c2=O)CC1` [Compound 372, N-[2-(4-methyl-1-piperidyl)phenyl]-4-oxo-1H-quinoline-3-carboxamide] were below 10 µM and “++ (between 25% to 100%)”. For `O=C(Nc1cccc2c1CCC2)c1c[nH]c2ccccc2c1=O` [Compound 373, N-indan-4-yl-4-oxo-1H-quinoline-3-carboxamide], in that order: below 10 µM and “++ (between 25% to 100%)”. As to `CSc1nc2ccccc2c(O)c1C(=O)Nc1ccc2cc[nH]c2c1` [Compound 374, 4-hydroxy-N-(1H-indol-6-yl)-2-methylsulfanyl-quinoline-3-carboxamide], the 50% effective concentration (EC50) fell in the range of 25 to 60 µM and the “% Activity” value is listed as “+ (<25%)”. Take `O=C(Nc1ccc2c(c1)CCCC2)c1c[nH]c2ccccc2c1=O` [Compound 375, 1,4-dihydro-N-(1,2,3,4-tetrahydronaphthalen-6-yl)-4-oxoquinoline-3-carboxamide]: the 50% effective concentration (EC50) was below 10 µM and the “% Activity” value is reported as “++ (between 25% to 100%)”. Taken in the same sequence, the figures for `O=C(Nc1ccc2oc(-c3ccccc3)nc2c1)c1c[nH]c2ccccc2c1=O` [Compound 376, 4-oxo-N-(2-phenylbenzooxazol-5-yl)-1H-quinoline-3-carboxamide] were 25 to 60 µM and “+ (<25%)”. Take `O=C(Nc1ccc2cc[nH]c2c1)c1cnc2c(F)cc(F)cc2c1O` [Compound 377, 6,8-difluoro-4-hydroxy-N-(1H-indol-6-yl)quinoline-3-carboxamide]: the concentration giving a half-maximal response (EC50) lay in the range of 10 to 25 µM and the “% Activity” value is listed as “++ (between 25% to 100%)”. As to `COc1ccc(NC(=O)c2c[nH]c3ccccc3c2=O)cc1N` [Compound 378, N-(3-amino-4-methoxy-phenyl)-4-oxo-1H-quinoline-3-carboxamide], the EC50 lay within 10 to 25 µM and the “% Activity” value is on record as “++ (between 25% to 100%)”. On to `CC(=O)Nc1cc(NC(=O)c2c[nH]c3ccccc3c2=O)cc(C(F)(F)F)c1` [Compound 379, N-[3-acetylamino-5-(trifluoromethyl)phenyl]-4-oxo-1H-quinoline-3-carboxamide], for which the EC50 was in the range of 10 to 25 µM and the “% Activity” value is “++ (between 25% to 100%)”.

For the compound `CCOc1ccccc1NC(=O)c1c[nH]c2ccccc2c1=O` [Compound 380, N-(2-ethoxyphenyl)-4-oxo-1H-quinoline-3-carboxamide], the EC50 is below 10 µM and the “% Activity” value was “++ (between 25% to 100%)”. Taken in the same sequence, the figures for `CC(C)(C)c1cc2cc[nH]c2cc1NC(=O)c1c[nH]c2ccccc2c1=O` [Compound 381, 4-oxo-N-(5-tert-butyl-1H-indol-6-yl)-1H-quinoline-3-carboxamide] were below 10 µM and “++ (between 25% to 100%)”. For `CCCc1ccc(NC(=O)c2c[nH]c3ccccc3c2=O)cc1NC(=O)OCC` [Compound 382, [5-[(4-oxo-1H-quinolin-3-yl)carbonylamino]-2-propyl-phenyl]aminoformic acid ethyl ester], in that order: below 10 µM and “++ (between 25% to 100%)”. For `CCc1c[nH]c2cc(NC(=O)c3c[nH]c4ccccc4c3=O)ccc12` [Compound 383, N-(3-ethyl-1H-indol-6-yl)-4-oxo-1H-quinoline-3-carboxamide], in that order: below 10 µM and “++ (between 25% to 100%)”.

As to `O=C(Nc1ccccc1-c1cc(F)ccc1F)c1c[nH]c2ccccc2c1=O` [Compound 384, N-[2-(2,5-difluorophenyl)phenyl]-4-oxo-1H-quinoline-3-carboxamide], the 50% effective concentration (EC50) is below 10 µM and the “% Activity” value is listed as “++ (between 25% to 100%)”. For `O=C(Nc1cccnc1Oc1ccc(F)cc1F)c1c[nH]c2ccccc2c1=O` [Compound 385, N-[2-(2,4-difluorophenoxy)-3-pyridyl]-4-oxo-1H-quinoline-3-carboxamide], the “% Activity” value is on record as “++ (between 25% to 100%)”. As to `CC1(C)CNc2cc(NC(=O)c3c[nH]c4ccccc4c3=O)ccc21` [Compound 386, N-(3,3-dimethylindolin-6-yl)-4-oxo-1H-quinoline-3-carboxamide], the EC50 is below 10 µM and the “% Activity” value is “++ (between 25% to 100%)”. For `Cc1c(NC(=O)c2c[nH]c3ccccc3c2=O)cccc1C(F)(F)F` [Compound 387, N-[2-methyl-3-(trifluoromethyl)phenyl]-4-oxo-1H-quinoline-3-carboxamide], in that order: below 10 µM and “++ (between 25% to 100%)”. In the case of `O=C(Nc1ccccc1-c1ccc(OC(F)(F)F)cc1)c1c[nH]c2ccccc2c1=O` [Compound 388, 4-oxo-N-[2-[4-(trifluoromethoxy)phenyl]phenyl]-1H-quinoline-3-carboxamide], the 50% effective concentration (EC50) is below 10 µM and the “% Activity” value is “++ (between 25% to 100%)”. For `O=C(Nc1cccc(Cc2ccccc2)c1)c1c[nH]c2ccccc2c1=O` [Compound 389, N-(3-benzylphenyl)-4-oxo-1H-quinoline-3-carboxamide], in that order: below 10 µM and “++ (between 25% to 100%)”.

Consider `CC(C)(C)c1ccc(NC(=O)c2c[nH]c3ccccc3c2=O)cc1CN` [Compound 390, N-[3-(Aminomethyl)-4-tert-butyl-phenyl]-4-oxo-1H-quinoline-3-carboxamide], for which the concentration giving a half-maximal response (EC50) lay in the range of 25 to 60 µM and the “% Activity” value was “+ (<25%)”. Take `CC(C)Cc1ccc(-c2ccccc2NC(=O)c2c[nH]c3ccccc3c2=O)cc1` [Compound 391, N-[2-(4-isobutylphenyl)phenyl]-4-oxo-1H-quinoline-3-carboxamide]: the EC50 was below 10 µM and the “% Activity” value was “++ (between 25% to 100%)”. Taken in the same sequence, the figures for `O=C(Nc1ccc(Cl)nc1)c1c[nH]c2ccccc2c1=O` [Compound 392, N-(6-chloro-3-pyridyl)-4-oxo-1H-quinoline-3-carboxamide] were 25 to 60 µM and “+ (<25%)”. `CCOc1ccccc1-c1ccc(N)cc1NC(=O)c1c[nH]c2ccccc2c1=O` [Compound 393, N-[5-amino-2-(2-ethoxyphenyl)-phenyl]-4-oxo-1H-quinoline-3-carboxamide]: the 50% effective concentration (EC50) is below 10 µM and the “% Activity” value is “++ (between 25% to 100%)”. Taken in the same sequence, the figures for `Cc1ccc2c(c1)c(=O)c(C(=O)Nc1ccccc1)cn2C` [Compound 394, 1,6-dimethyl-4-oxo-N-phenyl-1H-quinoline-3-carboxamide] were 25 to 60 µM and “+ (<25%)”. `O=C(Nc1cc(O)c(C23CC4CC(CC(C4)C2)C3)cc1F)c1cnc2ccccc2c1O` [Compound 395, N-[4-(1-adamantyl)-2-fluoro-5-hydroxy-phenyl]-4-hydroxy-quinoline-3-carboxamide]: the EC50 was below 10 µM and the “% Activity” value was “++ (between 25% to 100%)”. For `CC(C)(CNC(=O)OCC1CCOC1)c1ccc(NC(=O)c2c[nH]c3ccccc3c2=O)cc1` (stereo not drawn) [Compound 396, [2-methyl-2-[4-[(4-oxo-1H-quinolin-3-yl)carbonylamino]phenyl]-propyl]aminoformic acid tetrahydrofuran-3-ylmethyl ester], the EC50 fell in the range of 10 to 25 µM and the “% Activity” value is on record as “++ (between 25% to 100%)”. As for `O=C(Nc1ccc(-c2ccccc2)cc1)c1c[nH]c2ccccc2c1=O` [Compound 397, 4-oxo-N-(4-phenylphenyl)-1H-quinoline-3-carboxamide], the EC50 is below 10 µM and the “% Activity” value was “++ (between 25% to 100%)”.
